Key:
Test in all cases: competition of […]-glucose uptake by germinating conidia
Format in all cases: cell-based
MstC (SorA) [1] = molecular target: T1, MstC (SorA) (Aspergillus nidulans, UniProt Q5AYG1); details: wild type V004 conidia germinated on glycerol; 16 µM 14C-glucose, 200-fold excess competitor (3.2 mM)
T1 construct: gene ANIA_06669; native full-length protein, 534 aa, in intact germinating conidia (4 h, glycerol)
T1 sequence (Q5AYG1 1-534): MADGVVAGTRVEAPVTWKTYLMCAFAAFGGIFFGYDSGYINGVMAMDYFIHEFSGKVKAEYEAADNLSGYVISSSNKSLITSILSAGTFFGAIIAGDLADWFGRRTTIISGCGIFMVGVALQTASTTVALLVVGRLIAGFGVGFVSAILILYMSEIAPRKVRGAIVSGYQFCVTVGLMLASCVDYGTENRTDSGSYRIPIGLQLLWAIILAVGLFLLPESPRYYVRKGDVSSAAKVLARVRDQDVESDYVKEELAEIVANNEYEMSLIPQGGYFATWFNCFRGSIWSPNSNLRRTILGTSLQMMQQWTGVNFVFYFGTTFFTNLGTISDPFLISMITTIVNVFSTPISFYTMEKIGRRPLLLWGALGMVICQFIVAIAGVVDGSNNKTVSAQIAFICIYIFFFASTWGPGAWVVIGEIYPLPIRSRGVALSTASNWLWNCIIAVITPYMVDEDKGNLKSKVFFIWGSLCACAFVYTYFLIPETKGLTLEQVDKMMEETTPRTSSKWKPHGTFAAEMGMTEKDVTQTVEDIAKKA

MstA = molecular target: T2, MstA (Aspergillus nidulans, UniProt Q5ASJ3); details: V152 conidia germinated on glycerol; 90 µM 14C-glucose, 200-fold excess competitor (18 mM); minor low-affinity background uptake
T2 construct: gene ANIA_08737; full-length protein, 527 aa, homologous expression from mstC promoter in mstA mstC double-deleted A. nidulans; intact germinating conidia
T2 sequence (Q5ASJ3 entry or part of it): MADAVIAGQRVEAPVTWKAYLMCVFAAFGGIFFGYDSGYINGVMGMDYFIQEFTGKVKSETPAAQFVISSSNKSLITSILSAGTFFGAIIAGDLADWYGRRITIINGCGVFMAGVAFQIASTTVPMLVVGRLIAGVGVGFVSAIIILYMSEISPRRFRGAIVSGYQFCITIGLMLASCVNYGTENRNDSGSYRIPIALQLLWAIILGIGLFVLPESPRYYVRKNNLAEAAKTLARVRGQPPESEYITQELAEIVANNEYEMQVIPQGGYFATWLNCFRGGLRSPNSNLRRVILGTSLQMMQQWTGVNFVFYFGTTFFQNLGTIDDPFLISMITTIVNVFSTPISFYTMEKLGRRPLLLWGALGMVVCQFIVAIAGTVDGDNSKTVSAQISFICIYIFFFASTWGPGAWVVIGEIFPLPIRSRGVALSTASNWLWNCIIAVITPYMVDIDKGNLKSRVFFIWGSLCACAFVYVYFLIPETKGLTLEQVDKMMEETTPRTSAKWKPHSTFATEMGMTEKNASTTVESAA

MstC (SorA) [2] = molecular target: T1, MstC (SorA); details: wild type V004 conidia germinated on glycerol; 16 µM 14C-glucose, 200-fold excess competitor (3.2 mM); remark: listed apart in the source

SMILES | relative uptake rate, % of control (MstC (SorA) [1]) | relative uptake rate, % of control (MstA) | % reduction of uptake (MstC (SorA) [2])
OC[C@H]1OC(O)C[C@@H](O)[C@@H]1O (stereo partly drawn) [2-DOG] | most effective competitor, along with the glucose analogues 2-DOG and 3-O-methyl glucose | – | –
CO[C@H]1[C@H](O)[C@@H](CO)OC(O)[C@@H]1O (stereo partly drawn) [3-O-methyl glucose] | most effective competitor, along with the glucose analogues 2-DOG and 3-O-methyl glucose | – | –
OC[C@H]1OC(O)[C@H](O)[C@@H](O)[C@H]1O (stereo partly drawn) [galactose] | – | xylose and galactose may also be minor physiological sugar substrates for this transporter | –
OC[C@H]1OC(O)[C@@H](O)[C@@H](O)[C@@H]1O (stereo partly drawn) [mannose] | – | mannose is the most effective substrate of those studied in competing against glucose uptake | 80%
OC1OC[C@@H](O)[C@H](O)[C@H]1O (stereo partly drawn) [xylose] | – | xylose and galactose may also be minor physiological sugar substrates for this transporter | –
